Read-outs that look alike come from different tables or passages of the source. Starred links: 1 amine or outer side, 2 acyl side, 3 side chain; linkers in the order of their positions; H or OH if unused. Positions of bridges follow the written chain, without caps; N, C: chain ends. Non-standard residues stand in square brackets, D forms with d. Residues, ends and D or L forms follow the SMILES beside them. Chains are numbered I, II in the order given. Hexamethylenediamine = C(CCCN[*:2])CCN[*:1]; Dip = N[C@H](C(=O)O)C(c1ccccc1)c1ccccc1; Chg = N[C@H](C(=O)O)C1CCCCC1; NMeA = CN[C@@H](C)C(=O)O
Experiments:
[1] = test system: HS5 cells; experiment: Apoptosis (cleaved PARP/caspase-3, Caspase-Glo 3/7); assay type: cell-based; conditions: 10 µmol/L
Description: (§1) The determination of caspase-3/7 levels as an indication for apoptosis activity was performed using a Caspase-Glo 3/7 assay kit from Promega according to manufacturer's instructions. Cells were seeded at 1 × 10^4 cells per well and treated with 10 µmol/L of IAP antagonists for various indicated timings, followed by bioluminescence measurement using luminescent plate reader, Tecan Infinite200 Pro. The activity of apoptosis was also measured by flow cytometry using the Dead Cell Apoptosis Kit with Annexin V FITC and PI (Thermo Fisher Scientific) according to manufacturer's instructions. Cells harvested from lentiviral infection were subjected to Annexin V (2.5 µL) and PI (40 ng/mL, 0.5 µL) staining, followed by flow cytometric analysis using BD LSRFortessa cell analyzer with excitation/emission spectra of 494 nm/518 nm for FITC and 535 nm/617 nm for PI.
(§2) FIGURE 2 Specific loss of XIAP expression, not c-IAP1, is required for mediating apoptosis in high-risk neuroblastoma cells. A, Summary of IAP antagonists’ efficacy in killing neuroblastoma cells. […] C, Graphical representation showing the fold change of caspase-3/7 activity relative to vehicle controls after treatment with 10 µmol/L of either A4, B3, or BV6 at indicated timings (data were expressed as mean ± SD of three independent experiments conducted in duplicates; *, P < 0.05). […]

[2] = test system: BE(2)-C and KELLY cells; experiment: as above; assay type: cell-based, Human; conditions: 10 µmol/L
Description: as §1, §2

[3] = test system: CHP212; experiment: RealTime-Glo MT cell viability assay; assay type: cell-based, Human
Description: (§3) Cell viability was measured in real time using RealTime-Glo MT Cell Viability Assay as according to manufacturer's instructions from Promega. Cells were seeded at 1 × 10^4 cells per well and treated with a range of doses of indicated antagonists, followed by continuous bioluminescence reading every 24 hours for 3 days using luminescent plate reader, Varioskan (SkanIT software). IC50 was determined using GraphPad Prism software.
(§4) To determine their efficacy in neuroblastoma, a panel of neuroblastoma cell lines including neuroblastoma patient-derived cell lines and noncancerous normal tissue-derived cell lines were treated with increasing doses of each antagonist (0–100 µmol/L), followed by real-time measurement of cell viability every 24 for 72 hours.

[4] = test system: NBL16-0118 patient-derived neuroblastoma cells; experiment: RealTime-Glo MT cell viability assay; assay type: cell-based, Human
Description: as §3, §4

[5] = test system: IMR-32; experiment: RealTime-Glo MT cell viability assay; assay type: cell-based, Human
Description: as §3, §4

[6] = test system: BE(2)-C; experiment: RealTime-Glo MT cell viability assay; assay type: cell-based, Human
Description: as §3, §4

[7] = test system: NBL-07-0317 patient-derived neuroblastoma cells; experiment: RealTime-Glo MT cell viability assay; assay type: cell-based, Human
Description: as §3, §4

[8] = test system: SK-N-SH; experiment: RealTime-Glo MT cell viability assay; assay type: cell-based, Human
Description: as §3, §4

[9] = test system: SK-N-AS; experiment: RealTime-Glo MT cell viability assay; assay type: cell-based, Human
Description: as §3, §4

[10] = test system: NB1; experiment: RealTime-Glo MT cell viability assay; assay type: cell-based, Human
Description: as §3, §4

[11] = test system: NBL27-0218A patient-derived neuroblastoma cells; experiment: RealTime-Glo MT cell viability assay; assay type: cell-based, Human
Description: as §3, §4

[12] = test system: neuroblastoma cells across the panel of cell lines; experiment: Cell viability, IC50 range across the panel; assay type: cell-based, Human; conditions: range over cell lines, doses 0–100 µmol/L, viability every 24 for 72 hours; read-out: IC50 against neuroblastoma cells across the panel of cell lines
Description: as §3, with “([…]” for “(SkanIT”, “software. To determine their efficacy in neuroblastoma, a panel of neuroblastoma cell lines including neuroblastoma patient-derived cell lines and noncancerous normal tissue-derived cell lines were treated with increasing doses of each antagonist (0-100 μmol/L), followed by real-time measurement of cell viability every 24 for 72 hours. […] Supplementary Table S2; Fig. 2A). […] Fig. 2A).” for “software.”

[13] = target: T1, endogenous XIAP (Homo sapiens, UniProt P98170); experiment: Degradation of endogenous luciferase-tagged XIAP (HiBiT/LgBiT), real-time luminescence; assay type: cell-based; conditions: for DC50: 8 hours, read-out: DC50, degradation curve at 8h
T1 construct: knock-in a bioluminescent tag at endogenous loci of XIAP; endogenous in cells; host or cells: BE(2)-C and KELLY cells, CRISPR/Cas9 HiBiT knock-in, stably transfected with LgBiT vector (Promega)
T1 sequence (P98170 whole entry): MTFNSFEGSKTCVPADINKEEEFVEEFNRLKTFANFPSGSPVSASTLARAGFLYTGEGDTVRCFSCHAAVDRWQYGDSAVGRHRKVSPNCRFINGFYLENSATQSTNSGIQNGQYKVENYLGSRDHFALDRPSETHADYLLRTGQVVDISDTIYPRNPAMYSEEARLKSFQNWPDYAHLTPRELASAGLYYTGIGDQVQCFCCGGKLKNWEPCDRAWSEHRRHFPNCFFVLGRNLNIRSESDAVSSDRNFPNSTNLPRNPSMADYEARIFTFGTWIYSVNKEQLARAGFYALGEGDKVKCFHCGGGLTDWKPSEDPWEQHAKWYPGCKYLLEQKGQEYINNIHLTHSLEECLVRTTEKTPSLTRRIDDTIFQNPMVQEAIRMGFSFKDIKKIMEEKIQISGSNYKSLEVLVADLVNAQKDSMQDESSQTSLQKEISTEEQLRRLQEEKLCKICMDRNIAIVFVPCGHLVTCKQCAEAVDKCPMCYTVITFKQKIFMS
Description: B, Degradation profiles of endogenous XIAP in response to A4 or BV6 treatment of neuroblastoma cells, BE(2)-C (top) and KELLY (bottom). Cells were treated with increasing dose of A4 or BV6 and luminescence was measured continuously in real time for 2 hours. Luminescence values were normalized to DMSO vehicle control and degradation profiles were generated using GraphPad Prism. Values were expressed as mean ± SD of three independent experiments conducted in duplicates.
(A) Degradation profiles of endogenous XIAP in response to A4 treatment of neuroblastoma cells, BE(2)-C and KELLY. (B) Degradation profiles of endogenous XIAP in response to BV6 treatment of neuroblastoma cells, BE(2)-C and KELLY. […] Cells were treated with increasing dose of A4 or BV6 and luminescence was measured continuously in real-time for 2 hours (A4) or 8 hours (BV6), respectively. Luminescence values were normalized to DMSO vehicle control and degradation profiles were generated using GraphPad Prism. Values were expressed as mean ± SD of three independent experiments.

Which apoptosis [1] does the source give for CN[C@@H](C)C(=O)N[C@H](C(=O)N1CCC[C@H]1C(=O)N[C@H](C(=O)NCCCCCCNC(=O)[C@@H](NC(=O)[C@@H]1CCCN1C(=O)[C@@H](NC(=O)[C@H](C)NC)C1CCCCC1)C(c1ccccc1)c1ccccc1)C(c1ccccc1)c1ccccc1)C1CCCCC1 [BV6] (I: H-[NMeA][Chg]P[Dip] / II: H-[NMeA][Chg]P[Dip]; linker I:C-II:C via Hexamethylenediamine) here?
The apoptosis was “significant apoptosis”.

What about the “apoptosis (PARP and caspase-3 cleavage, caspase-3/7 activity)” value [2] of the same compound?
Its value is “minimal or no apoptosis”.

And the IC50 ([3]; CHP212, 24 hours)?
Its IC50 is 10.4 µM.

And the IC50 ([3]; CHP212, 48 hours)?
Its IC50 is 9.9 µM.

What about the IC50 ([3]; CHP212, 72 hours) of the same compound?
The IC50 was 9.3 µM.

And the IC50 ([4]; NBL16-0118, 24 hours)?
The IC50 was 5.1 µM.

What about the IC50 ([4]; NBL16-0118, 48 hours) of the same compound?
The IC50 was 2.8 µM.

And the IC50 ([4]; NBL16-0118, 72 hours)?
Its IC50 is 2.3 µM.

What about the IC50 ([5]; IMR-32, 24 hours) of the same compound?
The IC50 was 7.4 µM.

And the IC50 ([5]; IMR-32, 48 hours)?
The IC50 was 5.8 µM.

What about the IC50 ([5]; IMR-32, 72 hours) of the same compound?
Its IC50 is 4.3 µM.

What about the IC50 ([6]; 24 hours) of the same compound?
Its IC50 is 21.2 µM.

And the IC50 ([6]; 48 hours)?
Its IC50 is 16.8 µM.

And the IC50 ([6]; 72 hours)?
Its IC50 is 16.5 µM.

What about the IC50 ([7]; NBL-07-0317, 24 hours) of the same compound?
Its IC50 is 8.1 µM.

And the IC50 ([7]; NBL-07-0317, 48 hours)?
The IC50 was 5.5 µM.

What about the IC50 ([7]; NBL-07-0317, 72 hours) of the same compound?
Its IC50 is 4.8 µM.

What about the IC50 ([8]; 24 hours) of the same compound?
Its IC50 is 12.4 µM.

What about the IC50 ([8]; 48 hours) of the same compound?
The IC50 was 10.5 µM.

And the IC50 ([8]; 72 hours)?
Its IC50 is 9.7 µM.

And the IC50 ([9]; 24 hours)?
The IC50 was 4.6 µM.

And the IC50 ([9]; 48 hours)?
The IC50 was 3.2 µM.

And the IC50 ([9]; 72 hours)?
The IC50 was 2.6 µM.

What about the IC50 ([10]; NB1, 24 hours) of the same compound?
Its IC50 is 7 µM.

And the IC50 ([10]; NB1, 48 hours)?
Its IC50 is 5.5 µM.

And the IC50 ([10]; NB1, 72 hours)?
Its IC50 is 3.8 µM.

What about the IC50 ([11]; 24 hours) of the same compound?
The IC50 was 5.9 µM.

What about the IC50 ([11]; 48 hours) of the same compound?
Its IC50 is 3.6 µM.

And the IC50 ([11]; 72 hours)?
Its IC50 is 2.6 µM.

And the IC50 [12]?
Its IC50 is 3 to 20 µM.

And the “degradation of XIAP” value ([13]; 2 hours' exposure, BE(2)-C and KELLY)?
The value was “minimal degradation of XIAP”.

What about the DC50 ([13]; BE(2)-C) of the same compound?
Its DC50 is 44.5 µM.

What about the DC50 ([13]; KELLY) of the same compound?
Its DC50 is 32 µM.

Reference: publication PMC10681007, “Targeted Degradation of XIAP is Sufficient and Specific to Induce Apoptosis in MYCN-overexpressing High-risk Neuroblastoma” (Cancer Research Communications, 2023)
